EC50 and Activity data for 1 compound are collected here from ChEMBL document CHEMBL4665653, “VU6005806/AZN-00016130, an advanced M positive allosteric modulator (PAM) profiled as a potential preclinical development candidate” (Bioorg Med Chem Lett, 2019).

Calls of active or inactive are those of the source. The rule behind the calls is not given here.

Test [1] is described as follows: Positive allosteric modulation of cynomolgus monkey M4 receptor. Further details: species or system Macaca fascicularis.
Test [2] relates to Rattus norvegicus. Briefly: Reversal of amphetamine-induced hyperlocomotion in rat at 3 mg/kg, po relative to control. It is filed as functional.
Test [3] concerns Rattus norvegicus. Briefly: Reversal of amphetamine-induced hyperlocomotion in rat at 0.56 mg/kg, po relative to control. The format is functional.
The test system of the next test is Mus musculus. The test is described as follows: Reversal of amphetamine-induced hyperlocomotion in C57BL/6 mouse at 0.1 to 10 mg/kg, po pretreated for 30 mins after habituation in chamber followed by amphetamine challenge and measured after 1 hr. It is filed as functional, organism-based. To be noted: dose mg/kg 0.1-10, time 30.0 min.
In test [4] the target is D(1A) dopamine receptor (Homo sapiens) (UniProt P21728). The test is described as follows: Displacement of [3H]-SCH 23390 from recombinant full length human dopamine D1 receptor expressed in CHO cells assessed as residual binding level for radioligand at 10 uM after 120 mins by radiometric scintillation analysis relative to control. It is filed as cell-based. For orientation: Loss of bound radioactivity is the signal in a displacement assay; it reports binding, not function.
D(1A) dopamine receptor (Homo sapiens), sequence (P21728 whole entry): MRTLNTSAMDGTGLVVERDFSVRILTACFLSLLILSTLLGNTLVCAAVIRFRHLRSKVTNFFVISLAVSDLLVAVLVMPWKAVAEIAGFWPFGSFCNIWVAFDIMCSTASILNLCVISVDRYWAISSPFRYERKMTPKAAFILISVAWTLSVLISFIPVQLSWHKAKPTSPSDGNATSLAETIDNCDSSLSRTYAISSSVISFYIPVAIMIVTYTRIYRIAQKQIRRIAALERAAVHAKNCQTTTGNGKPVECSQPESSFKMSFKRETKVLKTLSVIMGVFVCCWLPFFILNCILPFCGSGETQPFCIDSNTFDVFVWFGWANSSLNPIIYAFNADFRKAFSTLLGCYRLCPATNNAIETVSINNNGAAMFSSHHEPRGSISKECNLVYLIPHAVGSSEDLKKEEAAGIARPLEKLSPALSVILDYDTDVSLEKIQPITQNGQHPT

The species entered for test [5] is Rattus norvegicus. The test is described as follows: Displacement of [125I]-Triiodothyronine from thyroid hormone receptors in Sprague-Dawley rat liver assessed as residual binding level for radioligand at 10 uM incubated for 1080 mins by radiometric scintillation analysis relative to control. It is filed as tissue-based.
Test [6] has as its target Prostaglandin E2 receptor EP4 subtype (Homo sapiens) (UniProt P35408). The test is described as follows: Displacement of [3H]-Prostaglandin E2 from full length recombinant human prostanoid receptor EP4 expressed in Chem-1 cells assessed as residual binding level for radioligand at 10 uM incubated for 120 mins by scintillation counting analysis relative to control. The format is cell-based.

Prostaglandin E2 receptor EP4 subtype (Homo sapiens), sequence (P35408 whole entry): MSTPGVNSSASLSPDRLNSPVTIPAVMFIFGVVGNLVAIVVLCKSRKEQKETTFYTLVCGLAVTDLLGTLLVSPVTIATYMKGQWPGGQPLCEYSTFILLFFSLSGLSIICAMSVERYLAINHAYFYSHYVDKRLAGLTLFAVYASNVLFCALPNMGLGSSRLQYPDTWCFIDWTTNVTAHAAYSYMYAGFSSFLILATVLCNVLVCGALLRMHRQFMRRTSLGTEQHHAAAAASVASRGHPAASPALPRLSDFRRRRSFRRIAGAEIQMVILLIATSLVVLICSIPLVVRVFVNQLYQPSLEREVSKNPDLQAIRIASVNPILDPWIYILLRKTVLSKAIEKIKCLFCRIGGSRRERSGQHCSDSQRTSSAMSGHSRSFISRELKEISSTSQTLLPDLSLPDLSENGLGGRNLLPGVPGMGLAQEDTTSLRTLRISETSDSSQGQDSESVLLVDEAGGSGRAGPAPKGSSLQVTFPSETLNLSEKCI

In turn, `COc1nnc2sc(C(=O)NC3CN(c4ncc(C(F)(F)F)cn4)C3)c(N)c2c1C` yielded an EC50 in test [1] of 68 nM. For the same compound, the Activity in the test on Rattus norvegicus [2] is 54%; in the test on Rattus norvegicus [3], 44%; in test [4], > 50%; in the test filed under Rattus norvegicus [5], > 50%; in test [6], > 50%. Besides, the outcome in the test with Mus musculus was Active.

The EC50 is the midpoint of the concentration-response curve.
